# According to ChEMBL document CHEMBL1133333, “Structural comparison between type I and type II antagonists: possible implications in the drug design of AT1 antagonists” (Bioorg Med Chem Lett, 2000):
# Biological target: T1, Angiotensin II receptor (AT-1) type-1 (Rattus norvegicus, UniProt P29089+P25095)
# T1 sequence (P29089 whole entry): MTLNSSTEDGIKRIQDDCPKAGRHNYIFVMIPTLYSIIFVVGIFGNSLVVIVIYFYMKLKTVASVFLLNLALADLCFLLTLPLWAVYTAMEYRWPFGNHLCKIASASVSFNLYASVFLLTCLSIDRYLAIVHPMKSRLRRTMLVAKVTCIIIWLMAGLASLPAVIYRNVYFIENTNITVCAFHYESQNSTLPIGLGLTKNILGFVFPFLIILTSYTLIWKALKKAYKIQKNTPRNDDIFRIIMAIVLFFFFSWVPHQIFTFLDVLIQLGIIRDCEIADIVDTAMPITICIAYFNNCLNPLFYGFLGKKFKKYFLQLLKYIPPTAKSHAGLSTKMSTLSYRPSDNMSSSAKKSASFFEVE
# T1 sequence (P25095 whole entry): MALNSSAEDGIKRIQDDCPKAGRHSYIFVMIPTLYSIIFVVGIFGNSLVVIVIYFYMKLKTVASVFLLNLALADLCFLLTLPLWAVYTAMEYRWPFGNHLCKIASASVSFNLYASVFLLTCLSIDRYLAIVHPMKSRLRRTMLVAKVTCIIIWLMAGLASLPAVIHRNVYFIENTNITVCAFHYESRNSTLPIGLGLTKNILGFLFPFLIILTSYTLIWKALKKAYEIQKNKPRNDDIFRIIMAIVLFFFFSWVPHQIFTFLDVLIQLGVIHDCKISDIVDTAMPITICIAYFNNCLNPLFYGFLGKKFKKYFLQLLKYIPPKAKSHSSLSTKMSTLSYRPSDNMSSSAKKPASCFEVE
# Assay: Antagonistic activity against Angiotensin II receptor type 1 in rat uterus
# Assay type: functional, tissue-based
row,SMILES,pA2
1,CC[C@H](C)[C@H](NC(=O)[C@H](Cc1ccc(OC)cc1)NC(=O)[C@@H](NC(=O)[C@H](CCCN=C(N)N)NC(=O)CNC)C(C)C)C(=O)N[C@@H](Cc1c[nH]cn1)C(=O)N1CCC[C@H]1C(=O)N[C@@H](CCO)C(=O)O,5.7
2,CC[C@H](C)[C@H](NC(=O)[C@H](Cc1ccc(OC)cc1)NC(=O)[C@@H](NC(=O)[C@H](CCCN=C(N)N)NC(=O)[C@@H](N)CC(=O)O)C(C)C)C(=O)N[C@@H](Cc1c[nH]cn1)C(=O)N1CCC[C@H]1C(=O)N[C@@H](CCO)C(=O)O,5.4
3,CC[C@H](C)[C@H](NC(=O)[C@@H]1CCCN1C(=O)[C@H](Cc1c[nH]cn1)NC(=O)[C@@H](NC(=O)[C@H](Cc1ccc(OC)cc1)NC(=O)[C@@H](NC(=O)[C@H](CCCN=C(N)N)NC(=O)CNC)C(C)C)[C@@H](C)CC)C(=O)O,6.6
4,CC[C@H](C)[C@H](NC(=O)[C@H](Cc1ccc(OC)cc1)NC(=O)[C@@H](NC(=O)[C@H](CCCN=C(N)N)NC(=O)CNC)C(C)C)C(=O)N[C@@H](Cc1c[nH]cn1)C(=O)N1CCC[C@H]1C(=O)N[C@@H](Cc1ccccc1)C(=O)O,7.5
5,CC[C@H](C)[C@H](NC(=O)[C@H](Cc1ccc(O)cc1)NC(=O)[C@@H](NC(=O)[C@@H](N)CCCN=C(N)N)C(C)C)C(=O)N[C@@H](Cc1c[nH]cn1)C(=O)N1CCC[C@H]1C(=O)N[C@@H](CCO)C(=O)O,< 4.8

# The next lines start with the values.
row,pA2,SMILES
1,6.7,CC[C@H](C)[C@H](NC(=O)[C@H](Cc1ccc(O)cc1)NC(=O)[C@@H](NC(=O)[C@H](CCCN=C(N)N)NC(=O)[C@@H](N)CC(=O)O)C(C)C)C(=O)N[C@@H](Cc1c[nH]cn1)C(=O)N1CCC[C@H]1C(=O)N[C@@H](CCO)C(=O)O
2,7.8,CC[C@H](C)[C@H](NC(=O)[C@H](Cc1ccc(O)cc1)NC(=O)[C@@H](NC(=O)[C@H](CCCN=C(N)N)NC(=O)CNC)C(C)C)C(=O)N[C@@H](Cc1c[nH]cn1)C(=O)N1CCC[C@H]1C(=O)N[C@@H](CCO)C(=O)O
3,< 4.8,CC[C@H](C)[C@H](NC(=O)[C@H](Cc1ccc(OC)cc1)NC(=O)[C@@H](NC(=O)[C@@H](N)CCCN=C(N)N)C(C)C)C(=O)N[C@@H](Cc1c[nH]cn1)C(=O)N1CCC[C@H]1C(=O)N[C@@H](CCO)C(=O)O
